Patent US20210353633A1, “CYCLODEXTRIN-BASED FORMULATION OF A BCL-2 INHIBITOR” (LES LABORATOIRES SERVIER, priority 2018, published 2021)

Tests used:
[1] = pH, appearance and precipitation pH of solutions diluted in 250 mL of glucose 5% solution (G5); format: physicochemical; settings: for pH: hydrogen sulfate salt in Cavitron W7H5; for Precipitation pH (by light obscuration technique) / Precipitation pH (by visual observation): pH increased with NaOH 0.01N
Protocol: The Compound A used is in the form of a hydrogen sulfate salt. Invisible particulate contamination of the solutions was also controlled by light obscuration technique.
A mother solution containing a dose of 200 mg/mL of Cavitron™ W7H5 and 20 mg/mL of Compound A (expressed for the free base) is prepared by dissolving a lyophilisate as described in Example 5 in the necessary amount of water. The solution so obtained is then diluted by means of glucose 5% solution (G5).
The pH of the solutions obtained is measured and the appearance of the solutions is observed. The pH is increased using NaOH 0.01N solution until a precipitation is observed.

[2] = pH of precipitation by addition of NaOH to a HP-β-cyclodextrin solution (Example 9); format: physicochemical; settings: hydrogen sulfate salt in Cavitron W7H5 solution; 0.5M NaOH added; visual; duplicate
Protocol: The objective of this study is to define the pH of precipitation of Compound A (hydrogen sulfate salt) from HP-β-cyclodextrin solution to better understand the risk of precipitation and select the pH of the drug product.
Weigh 10 g of Cavitron™ W7H5 in a 50 mL flask. Add 26 g of water and then solubilize the Cavitron™ W7H5 under magnetic agitation. Carefully add 1.14 g of Compound A under magnetic agitation and then add 6.5 mL of water. Solubilize Compound A using magnetic agitation at 60° C. Once totally solubilized, cool down the solution at room temperature then rinse the upper edges of the flask with 0.5 mL of water. The total amount of water added is […].
Slowly add 0.5M NaOH solution under continuous agitation (add 100 μL at each addition step) up to a precipitation is visually observed. The experiment was performed in duplicate. The precipitated solid is separated and dried to be analyzed by RMN, XRPD, XRF, and HPLC.

RS4;11 = assay: Efficacy in RS4;11 xenograft model in mice; format: in vivo; settings: day 21, 20% HP-β-cyclodextrin solution
Protocol: The in vivo therapeutic effect of Compound A formulated in a solution comprising 20% of a HP-β-cyclodextrin w/v, was determined in the RS4;11 model after intravenous administration.
RS4;11 cell line, obtained from ATCC, were subcutaneously injected into female SCID mice, provided by Charles River. When tumors reached the appropriate tumor volume, mice were randomized using Easy stat software. Compound A (15 mg/kg or 40 mg/kg expressed as free base) was injected i.v. once a week over two weeks.
In a 100 mL flask, introduce 20 g of Cavitron™ W7HP5 and add around 75 mL of a solution water/0.9% NaCl (70/30, v/v). Stir for 15 minutes at room temperature. Then, make up the solution to a volume of 100 mL by adding the previous solution water/0.9% NaCl, while maintaining magnetic stirring. Weigh the necessary amount of ‘Compound A, H2SO4’ and dissolve it with the previous 20% w/v Cavitron™ W7H5 solution. Heat the whole at 60° C. under vigorous magnetic stirring until solubilisation of the components of the mixture is complete. Measure the pH of the solution obtained. […]
Mice were monitored for tumor development and body weight three times a week and tumor size was measured using electronic calipers. […] The last day with all control animals still present in the study, tumor growth inhibition was calculated using the formula: […]
wherein ‘DTV (Delta Tumor Volume) at Dx’ is calculated as follows: […]

[3] = Physical and chemical stability over time of solutions diluted in G5; format: physicochemical; settings: 12, 20 and 1000 mg/250 mL of G5
Protocol: Moreover, studies of physical stability over time (24 h, 48 h and 72 h) are carried out on the solutions obtained hereinbefore. In particular, these studies include the particle count of the tested solutions in accordance with the method described in the text of the European Pharmacopoeia 2.9.19. Tests 1.B (i.e. counting of the sub-visible particles by light obscuration).
Studies of chemical stability over time (24 h, 48 h and 72 h) are also put in place in order to ensure the stability of the product under laboratory light (1500 lux) and various heat conditions (ambient temperature, 5° C.). These studies include especially measurements of the amount of active ingredient and degradation products. Pharmaceutical compositions of Compound A solubilised by means of a Cavitron™ W7H5 solution diluted in G5 solution were tested for the following concentrations: 12 mg/250 mL, 20 mg/250 mL and 1000 mg/250 mL of G5 solution.

[4] = 12 mg of Compound A in 250 mL of G5
[5] = 25 mg of Compound A in 250 mL of G5
[6] = 50 mg of Compound A in 250 mL of G5
[7] = 100 mg of Compound A in 250 mL of G5
[8] = 250 mg of Compound A in 250 mL of G5
[9] = 500 mg of Compound A in 250 mL of G5
[10] = 1000 mg of Compound A in 250 mL of G5

Cc1c(N(C(=O)c2cc(-c3cc(Cl)ccc3C(=O)N3Cc4ccccc4C[C@H]3CN3CCOCC3)n(C)c2C)c2ccc(O)cc2)cc(C#N)n1C [Compound A, 5-(5-chloro-2-{[(3S)-3-(morpholin-4-ylmethyl)-3,4-dihydroisoquinolin-2(1H)-yl]carbonyl}phenyl)-N-(5-cyano-1,2-dimethyl-1H-pyrrol-3-yl)-N-(4-hydroxyphenyl)-1,2-dimethyl-1H-pyrrole-3-carboxamide]
Appearance of the solution after 15 min [1, 4]: clear | pH [1, 4]: 3.7-4.310 | Precipitation pH (by light obscuration technique) [1, 4]: 5.4 | Precipitation pH (by visual observation) [1, 4]: 8.609 | Appearance of the solution after 15 min [1, 5]: clear | pH [1, 5]: 3.9-4.240 | Precipitation pH (by light obscuration technique) [1, 5]: 4.8 | Precipitation pH (by visual observation) [1, 5]: 5.220 | Appearance of the solution after 15 min [1, 6]: clear | pH [1, 6]: 3.8-4.158 | Precipitation pH (by light obscuration technique) [1, 6]: 4.5 | Precipitation pH (by visual observation) [1, 6]: 5.143 | Appearance of the solution after 15 min [1, 7]: clear | pH [1, 7]: 3.8-4.033 | Precipitation pH (by light obscuration technique) [1, 7]: 4.3 | Precipitation pH (by visual observation) [1, 7]: 4.872 | Appearance of the solution after 15 min [1, 8]: clear | pH [1, 8]: 3.7-3.809 | Precipitation pH (by light obscuration technique) [1, 8]: 4.1 | Precipitation pH (by visual observation) [1, 8]: 4.388 | Appearance of the solution after 15 min [1, 9]: clear | pH [1, 9]: 3.5-3.613 | Precipitation pH (by light obscuration technique) [1, 9]: 4.0 | Precipitation pH (by visual observation) [1, 9]: 4.378 | Appearance of the solution after 15 min [1, 10]: clear | pH [1, 10]: 3.3-3.401 | Precipitation pH (by light obscuration technique) [1, 10]: 4.0 | Precipitation pH (by visual observation) [1, 10]: 4.254 | precipitation when diluted in G5 solution ([1]; concentrations between 12 and 1000 mg/250 mL of G5 solution, solubilised by Cavitron W7H5 solution): do not precipitate | pH at which drug precipitation was observed [2]: 4.27 | tumor growth inhibition (RS4;11; 15 mg/kg i.v. once a week for 2 weeks): 57.83% | tumor growth inhibition (RS4;11; 40 mg/kg i.v. once a week for 2 weeks): 75.52% | chemical degradation product ([3]; laboratory light (1500 lux), ambient temperature and 5° C., during 72 h): No significant chemical degradation product was observed | rate of sub-visible particles (light obscuration method) ([3]; up to 72 h): in accordance with the requirement of the European Pharmacopoeia 2.9.19
